This test relates to organisms in sea water. Description: ATP luminescence assay of sea samples treated with biocide dyes. It is filed as cell-based. Particulars: for biocidal properties in sea water (total ATP levels): Millport sea samples, different concentrations. The procedure:
Required quantities of each biocide dye were added to the tubes containing the sea sample by means of sterile pipettes in order to give the desired concentrations.
50 mL of each seawater sample was centrifuged at 4,000 rpm for 30 minutes at room temperature. The supernatant was discarded, and the pellets (which may not be visible) were resuspended in 1 mL of ATP Buffer Mix by brisk mixing with a sterile pastette. 0.1 mL of detergent solution was added to each sample. Sample tubes were then placed in a water bath at 90° C. for exactly 5 minutes to lyse seawater organisms. Alternatively the seawater organisms (from 50 mL water) are captured on a 0.22 μm filter membrane and treated with the ATP Buffer Mix, as above.
As a negative control, sterilised seawater (filtered through 0.22 μm filter and/or autoclaved) was used. Where coloured agents were added to the samples, these were also added to the negative control at the same concentration.
One aliquot (0.1 mL) of ATP Assay Mix solution was thawed and added to a sterile transparent 5 mL luminometer tube. This was swirled and allowed to stand at room temperature to allow hydrolysis of endogenous ATP and decrease background.
Immediately after 5 minutes of being at 90° C., 0.1 mL of resuspended seawater sample was added to the reaction tube, swirled briskly for 5 seconds, and immediately measured using a tube luminometer using a 4 second read time.

As to `CN(C)c1ccc(C(=C2C=CC(=[N+](C)C)C=C2)c2ccc(N(C)C)cc2)cc1` [Gentian Violet], the “biocidal properties in sea water (total ATP levels)” value (with and without incubation (FIG. 3.2)) is on record as “effective biocidal properties”. Also, the “viability of organisms in sea water (as measured by ATP presence)” value (dyes used separately (FIG. 4.1)) is “incomplete reduction in viability”. Regarding `O=C1OC2(c3ccccc31)c1cc(I)c(O)c(I)c1Oc1c2cc(I)c(O)c1I` [erythrosine], the “biocidal properties in sea water (total ATP levels)” value (overnight incubation, with and without light (60 w for 5 minutes) (FIG. 3.3)) is on record as “effective biocidal properties”.

For the origin of these results see patent US9469556B2, “Ballast water treatment system” (University of Strathclyde, priority 2009, dated 2016).
